Laboratory results published in patent publication US20230219962A1, “PYRAZOLO[4,3-d]PYRIMIDINE DERIVATIVES AND METHODS OF USE THEREOF FOR THE TREATMENT OF CELLULAR PROLIFERATIVE DISORDERS” (Merck Sharp & Dohme LLC, priority 2020, published 2023).

Columns and labels:
[1] = biological target: T1, hTLR7 (Homo sapiens, UniProt Q9NYK1); assay: Human TLR7 Reporter Assay; type: cell-based; details: HEK-Blue hTLR7 cells, 16 hours, normalized to CL097 (6 μM) and DMSO
T1 construct: host or cells: HEK-Blue hTLR7 cells (HEK293-derived, own knowledge)
T1 sequence (Q9NYK1 27-1049): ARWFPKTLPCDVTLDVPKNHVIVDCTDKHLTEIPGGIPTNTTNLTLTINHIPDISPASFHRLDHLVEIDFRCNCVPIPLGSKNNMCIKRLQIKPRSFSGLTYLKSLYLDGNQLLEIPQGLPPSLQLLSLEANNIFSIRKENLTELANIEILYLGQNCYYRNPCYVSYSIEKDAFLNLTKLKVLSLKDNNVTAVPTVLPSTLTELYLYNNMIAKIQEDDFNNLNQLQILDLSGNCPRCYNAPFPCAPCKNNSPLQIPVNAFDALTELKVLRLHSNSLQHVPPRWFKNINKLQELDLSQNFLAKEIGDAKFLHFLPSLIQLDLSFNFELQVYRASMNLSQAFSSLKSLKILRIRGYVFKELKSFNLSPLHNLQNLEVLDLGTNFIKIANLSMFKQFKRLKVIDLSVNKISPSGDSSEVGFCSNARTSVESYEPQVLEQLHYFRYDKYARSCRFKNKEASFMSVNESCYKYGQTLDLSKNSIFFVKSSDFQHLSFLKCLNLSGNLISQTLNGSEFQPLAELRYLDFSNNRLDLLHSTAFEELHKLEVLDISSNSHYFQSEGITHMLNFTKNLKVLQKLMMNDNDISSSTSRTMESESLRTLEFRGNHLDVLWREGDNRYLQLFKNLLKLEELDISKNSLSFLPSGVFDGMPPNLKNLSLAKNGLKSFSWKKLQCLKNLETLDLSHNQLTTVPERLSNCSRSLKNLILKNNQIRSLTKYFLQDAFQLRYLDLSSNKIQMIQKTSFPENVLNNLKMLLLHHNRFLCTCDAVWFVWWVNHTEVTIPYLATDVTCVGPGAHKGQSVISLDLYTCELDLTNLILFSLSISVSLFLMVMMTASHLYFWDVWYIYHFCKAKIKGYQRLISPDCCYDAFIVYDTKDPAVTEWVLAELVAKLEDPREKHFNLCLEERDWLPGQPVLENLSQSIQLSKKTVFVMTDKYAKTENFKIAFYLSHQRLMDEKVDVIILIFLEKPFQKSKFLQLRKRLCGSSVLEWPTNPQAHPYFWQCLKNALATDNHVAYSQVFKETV
Procedure: (§1) HEK-Blue™ hTLR7 cells (Invivogen, San Diego, Calif.) were maintained at 37° C./5% CO2/90% relative humidity in Dulbecco's Modified Eagle's Medium with 10% fetal bovine serum, 100 units/mL penicillin, 100 μg/mL streptomycin, 100 μg/mL normocin, 10 μg/mL blasticidin, and 100 μg/mL zeocin. HEK-Blue™ hTLR7 cells were maintained at 10-90% confluence and used before passage 20. For this assay, test compounds were dissolved in DMSO, and 10-point serial 3-fold dilution series in DMSO were prepared in Echo Qualified 384-well Polypropylene Microplates (Labcyte, San Jose, Calif.). Assay plates (384-well flat, clear bottom, black polystyrene TC-treated microtiter plates; Corning, Corning, N.Y.) were prepared by dispensing 150 nL of test compounds, high control (CL097; Invivogen, San Diego, Calif.), and low control (DMSO) by ECHO acoustic dispenser (Labcyte, San Jose Calif.) followed by addition of 5 μL of HEK-Blue™ Detection assay media (Invivogen, San Diego, Calif.). HEK-Blue™ hTLR7 cells in HEK-Blue™ Detection assay media (20,000 cells per well in 45 μL of media) were added to the assay plate and incubated for 16 hours at 37° C./5% CO2/90% relative humidity. For detection, assay plates were removed from the incubator, allowed to cool to ambient temperature, centrifuged at 200×g for 1 minutes, and read with an EnSpire Multimode Plate Reader (Perkin Elmer, Waltham, Mass.) for absorbance at 620 nm. Test compound effects were normalized to the window defined by the controls, CL097 (6 μM), and DMSO. Calculated % effects were fit using a 4-parameter algorithm, and EC50 was reported.

[2] = biological target: T2, hTLR8 (Homo sapiens, UniProt Q9NR97); assay: Human TLR8 Reporter Assay; type: cell-based; details: HEK-Blue hTLR8 cells, 16 hours, normalized to tl8-506 (1 μM) and DMSO
T2 construct: host or cells: HEK-Blue hTLR8 cells (HEK293-derived, own knowledge)
T2 sequence (Q9NR97 27-1041): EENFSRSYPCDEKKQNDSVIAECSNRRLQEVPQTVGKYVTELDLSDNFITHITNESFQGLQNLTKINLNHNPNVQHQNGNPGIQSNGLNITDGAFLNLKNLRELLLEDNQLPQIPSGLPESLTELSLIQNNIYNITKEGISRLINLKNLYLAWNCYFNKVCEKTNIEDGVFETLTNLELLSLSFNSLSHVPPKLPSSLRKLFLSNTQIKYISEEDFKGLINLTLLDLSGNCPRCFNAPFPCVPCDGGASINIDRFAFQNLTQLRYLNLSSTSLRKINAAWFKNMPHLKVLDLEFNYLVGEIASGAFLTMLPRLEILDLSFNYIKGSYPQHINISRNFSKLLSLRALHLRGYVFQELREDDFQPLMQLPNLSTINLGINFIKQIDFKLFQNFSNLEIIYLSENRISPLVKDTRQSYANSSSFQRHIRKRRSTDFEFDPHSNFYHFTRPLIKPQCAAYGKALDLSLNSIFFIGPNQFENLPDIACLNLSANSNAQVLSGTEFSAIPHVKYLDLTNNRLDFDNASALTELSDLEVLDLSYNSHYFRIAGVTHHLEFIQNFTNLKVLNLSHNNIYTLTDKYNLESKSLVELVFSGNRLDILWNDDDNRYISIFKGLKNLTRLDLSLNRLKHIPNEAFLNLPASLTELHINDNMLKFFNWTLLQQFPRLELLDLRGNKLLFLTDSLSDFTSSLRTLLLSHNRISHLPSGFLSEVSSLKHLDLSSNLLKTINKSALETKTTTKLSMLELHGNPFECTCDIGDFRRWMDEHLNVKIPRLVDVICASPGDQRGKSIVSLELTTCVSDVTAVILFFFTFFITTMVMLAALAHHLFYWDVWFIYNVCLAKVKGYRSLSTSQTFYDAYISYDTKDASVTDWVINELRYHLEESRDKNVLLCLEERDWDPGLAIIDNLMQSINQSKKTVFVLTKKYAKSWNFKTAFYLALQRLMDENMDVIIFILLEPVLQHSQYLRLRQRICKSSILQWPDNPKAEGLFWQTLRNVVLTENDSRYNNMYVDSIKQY
Procedure: as §1, with “hTLR8” for “hTLR7”, “(tl8-506;” for “(CL097;”, “tl8-506 (1” for “CL097 (6”

SMILES	EC50 [1]	EC50 [2]
CCCCNc1nc(N)nc2cn(Cc3ccc(CN4CCN(C(=O)CCN5C(=O)C=CC5=O)CC4)cc3)nc12 [Compound 119]	6650 nM	22500 nM
CCCCNc1nc(N)nc2cn(Cc3ccc(CC(C)N)cc3OC)nc12 (centres unmarked) [Compound 176]	329 nM	467 nM
CCCCNc1nc(N)nc2cn(Cc3ccc(N4CC5(CNC5)C4)cc3OC)nc12 [Compound 116]	988 nM	4200 nM
CCC[C@@H](CO)Nc1nc(N)nc2cn(Cc3ncc(CNC)cc3OC)nc12 [Compound 195]	1590 nM	785 nM
CCCCNc1nc(N)nc2cn(Cc3cc(N4CCNCC4)ccc3OC)nc12 [Compound 59]	964 nM	2640 nM
CCCCNc1nc(N)nc2cn(Cc3ccc(C(C)NC)cc3OC)nc12 (centres unmarked) [Compound 193]	57.7 nM	106 nM
CCCCNc1nc(N)nc2cn(Cc3ccc(CN(C)C)o3)nc12 [Compound 186]	190 nM	278 nM
CCCCNc1nc(N)nc2cn(Cc3cc(CN4CC(CN)C4)ccc3OC)nc12 [Compound 151]	2260 nM	869 nM
CCCCNc1nc(N)nc2cn(Cc3ccc(CCNC)cc3OC)nc12 [Compound 147]	180 nM	265 nM
CCCCNc1nc(N)nc2cn(Cc3c(OC)cc(CCN)cc3OC)nc12 [Compound 67]	281 nM	392 nM
CCCCNc1nc(N)nc2cn(Cc3ccon3)nc12 [Compound 117]	751 nM	2200 nM
CCCC(Nc1nc(N)nc2cn(Cc3c(OC)cccc3OC)nc12)C(F)(F)F (centres unmarked) [Compound 126]	707 nM	> 9980 nM
CCCCNc1nc(N)nc2cn(Cc3ncc(NCCCN)cc3OC)nc12 [Compound 129]	293 nM	1360 nM
CCCCNc1nc(N)nc2cn(Cc3c(OC)cc(CN4CCNCC4)cc3OC)nc12 [Compound 62]	840 nM	1490 nM
CCCCNc1nc(N)nc2cn(Cc3ccc(C(C)NCCC)cc3OC)nc12 (centres unmarked) [Compound 217]	51.7 nM	91.7 nM
CCCCNc1nc(N)nc2cn(Cc3ccc(C4CCC(=O)N4)cc3)nc12 (centres unmarked) [Compound 203]	526 nM	11400 nM

SMILES	EC50 [1]	EC50 [2]
CCCCNc1nc(N)nc2cn(Cc3ccc(C4CCCN4)cc3)nc12 (centres unmarked) [Compound 204]	508 nM	533 nM
CCCCNc1nc(N)nc2cn(Cc3c(OC)ccc(CN4CCN(C(=O)C5CCC(CN6C(=O)CC(SC[C@H](N)C(=O)O)C6=O)CC5)CC4)c3OC)nc12 (some centres unmarked) [Compound 90]	2210 nM	15100 nM
COc1cccc(OC)c1Cn1cc2nc(N)nc(NC(C)C)c2n1 [Compound 27]	1120 nM	4380 nM
CCCCNc1nc(N)nc2cn(Cc3nnco3)nc12 [Compound 212]	7750 nM	8140 nM
CCCCNc1nc(N)nc2cn(Cc3c(OC)cc(CN4CCN(C(=O)C5CCC(CN6C(=O)CC(SC[C@H](N)C(=O)O)C6=O)CC5)CC4)cc3OC)nc12 (some centres unmarked) [Compound 89]	2620 nM	24600 nM
CCCCNc1nc(N)nc2cn(Cc3cc(N4CCN(C(=O)C5CCC(CN6C(=O)C=CC6=O)CC5)CC4)ccc3OC)nc12 (centres unmarked) [Compound 70]	> 1110 nM	908 nM
CCCCNc1nc(N)nc2cn(Cc3nc(N4CCNCC4)ccc3OC)nc12 [Compound 159]	1150 nM	9550 nM
CCCCNc1nc(N)nc2cn(Cc3ccc(C(C)N(C)C)cc3OC)nc12 (centres unmarked) [Compound 219]	122 nM	275 nM
CCCCNc1nc(N)nc2cn(Cc3c(OC)cccc3OCCCCC(=O)OC)nc12 [Compound 207]	806 nM	2340 nM
CCCCNc1nc(N)nc2cn(Cc3cc(CN)ccc3OC)nc12 [Compound 146]	628 nM	637 nM
CCCCNc1nc(N)nc2cn(Cc3ccc(C4CCCN4)cc3OC)nc12 (centres unmarked) [Compound 236]	241 nM	2870 nM
CCCCNc1nc(N)nc2cn(Cc3ccc(C4CCC(=O)N4)cc3)nc12 (centres unmarked) [Compound 201]	539 nM	3260 nM
CCCCNc1nc(N)nc2cn(Cc3c(OC)ccc(CN4C(=O)C=CC4=O)c3OC)nc12 [Compound 95]	3350 nM	4330 nM
CCCCNc1nc(N)nc2cn(Cc3ccc(CN4CCNCC4)cc3OC)nc12 [Compound 131]	680 nM	1250 nM
CCCCNc1nc(N)nc2cn(Cc3c(OCC)cccc3OCC)nc12 [Compound 40]	125 nM	813 nM
